In ChEMBL document CHEMBL1201862, “PubChem BioAssay data set” (2004):
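All cell lines were grown in 96-well plates and treated with compound for 48 hours. Here, GI50 denotes the concentration required for 50% inhibition of growth.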 Active and inactive are the calls of the source. Cut-off read from the data, not from the text of the source: active = GI50 up to about 1.1 µM and inactive = higher.

How the values were obtained:
Test in all cases: growth of human tumour cells (NCI), 48 h
[1] = system: 786-0
[2] = system: A549
[3] = system: ACHN
[4] = system: CAKI-1
[5] = system: CCRF-CEM
[6] = system: COLO 205
[7] = system: DU-145
[8] = system: EKVX
[9] = system: HCC 2998
[10] = system: HCT-116
[11] = system: HCT-15
[12] = system: HL-60
[13] = system: HOP-62
[14] = system: HT-29
[15] = system: Hs-578T
[16] = system: IGROV-1
[17] = system: K562
[18] = system: KM12
[19] = system: LOX IMVI
[20] = system: M14
[21] = system: MCF7
[22] = system: MDA-MB-231
[23] = system: MDA-MB-435
[24] = system: MDA-N
[25] = system: MOLT-4
[26] = system: Malme-3M
[27] = system: NCI-H226
[28] = system: NCI-H23
[29] = system: NCI-H460
[30] = system: NCI-H522
[31] = system: NCI/ADR-RES
[32] = system: OVCAR-3
[33] = system: OVCAR-5
[34] = system: OVCAR-8
[35] = system: PC-3
[36] = system: RPMI-8226
[37] = system: RXF 393
[38] = system: SF-268
[39] = system: SF-295
[40] = system: SF-539
[41] = system: SK-MEL-28
[42] = system: SK-MEL-5
[43] = system: SN12C
[44] = system: SNB-19
[45] = system: SNB-75
[46] = system: SW-620
[47] = system: T47D
[48] = system: TK-10
[49] = system: U-251
[50] = system: UACC-257
[51] = system: UACC-62
[52] = system: UO-31
[53] = system: HOP-92
[54] = system: OVCAR-4
[55] = system: SK-MEL-2
[56] = system: SK-OV-3
[57] = system: SR

For `COc1cc2c(c(OC)c1OC)C(=O)[C@@H](O)[C@H]2NC(N)=O`, which GI50 [1] is on record?
The GI50 was > 100 µM (inactive).

What about the GI50 [2] of the same compound?
The GI50 was > 100 µM (inactive).

And the GI50 [3]?
The GI50 was > 100 µM (inactive).

What about the GI50 [4] of the same compound?
Its GI50 is > 100 µM (inactive).

What about the GI50 [5] of the same compound?
Its GI50 is > 100 µM (inactive).

And the GI50 [6]?
The GI50 was > 100 µM (inactive).

What about the GI50 [7] of the same compound?
The GI50 was > 100 µM (inactive).

What about the GI50 [8] of the same compound?
Its GI50 is > 100 µM (inactive).

And the GI50 [9]?
The GI50 was > 100 µM (inactive).

And the GI50 [10]?
Its GI50 is > 100 µM (inactive).

And the GI50 [11]?
The GI50 was greater than 100 µM.

What about the GI50 [12] of the same compound?
The GI50 was > 100 µM (inactive).

What about the GI50 [13] of the same compound?
Its GI50 is > 100 µM (inactive).

And the GI50 [14]?
Its GI50 is > 100 µM (inactive).

And the GI50 [15]?
The GI50 was > 100 µM (inactive).

What about the GI50 [16] of the same compound?
The GI50 was > 100 µM (inactive).

And the GI50 [17]?
Its GI50 is > 100 µM (inactive).

What about the GI50 [18] of the same compound?
Its GI50 is > 100 µM (inactive).

And the GI50 [19]?
Its GI50 is > 100 µM (inactive).

What about the GI50 [20] of the same compound?
Its GI50 is > 100 µM (inactive).

What about the GI50 [21] of the same compound?
Its GI50 is > 100 µM (inactive).

What about the GI50 [22] of the same compound?
The GI50 was > 100 µM (inactive).

What about the GI50 [23] of the same compound?
Its GI50 is > 100 µM (inactive).

What about the GI50 [24] of the same compound?
The GI50 was > 100 µM (inactive).

And the GI50 [25]?
Its GI50 is > 100 µM (inactive).

What about the GI50 [26] of the same compound?
Its GI50 is > 100 µM (inactive).

And the GI50 [27]?
Its GI50 is > 100 µM (inactive).

What about the GI50 [28] of the same compound?
The GI50 was > 100 µM (inactive).

And the GI50 [29]?
Its GI50 is > 100 µM (inactive).

And the GI50 [30]?
Its GI50 is > 100 µM (inactive).

What about the GI50 [31] of the same compound?
The GI50 was > 100 µM (inactive).

What about the GI50 [32] of the same compound?
Its GI50 is > 100 µM (inactive).

What about the GI50 [33] of the same compound?
The GI50 was > 100 µM (inactive).

And the GI50 [34]?
The GI50 was > 100 µM (inactive).

And the GI50 [35]?
The GI50 was > 100 µM (inactive).

And the GI50 [36]?
Its GI50 is > 100 µM (inactive).

What about the GI50 [37] of the same compound?
The GI50 was > 100 µM (inactive).

What about the GI50 [38] of the same compound?
The GI50 was > 100 µM (inactive).

And the GI50 [39]?
The GI50 was > 100 µM (inactive).

And the GI50 [40]?
The GI50 was > 100 µM (inactive).

What about the GI50 [41] of the same compound?
Its GI50 is > 100 µM (inactive).

And the GI50 [42]?
The GI50 was > 100 µM (inactive).

What about the GI50 [43] of the same compound?
Its GI50 is > 100 µM (inactive).

What about the GI50 [44] of the same compound?
Its GI50 is > 100 µM (inactive).

What about the GI50 [45] of the same compound?
The GI50 was > 100 µM (inactive).

What about the GI50 [46] of the same compound?
The GI50 was > 100 µM (inactive).

And the GI50 [47]?
Its GI50 is 31.6 µM (inactive).

And the GI50 [48]?
The GI50 was > 100 µM (inactive).

And the GI50 [49]?
The GI50 was > 100 µM (inactive).

What about the GI50 [50] of the same compound?
Its GI50 is > 100 µM (inactive).

What about the GI50 [51] of the same compound?
The GI50 was 83.4 µM (inactive).

And the GI50 [52]?
The GI50 was > 100 µM (inactive).

How did the GI50 [1] turn out when `COc1cc(-c2cc(=O)c3cc4c(cc3[nH]2)OCO4)cc(OC)c1O` was run?
Its GI50 is > 10 µM (inactive).

And the GI50 [2]?
Its GI50 is > 10 µM (inactive).

And the GI50 [3]?
The GI50 was > 10 µM (inactive).

What about the GI50 [4] of the same compound?
The GI50 was > 10 µM (inactive).

What about the GI50 [5] of the same compound?
Its GI50 is > 10 µM (inactive).

And the GI50 [6]?
The GI50 was > 10 µM (inactive).

And the GI50 [7]?
Its GI50 is > 10 µM (inactive).

What about the GI50 [8] of the same compound?
The GI50 was > 10 µM (inactive).

What about the GI50 [9] of the same compound?
Its GI50 is > 10 µM (inactive).

And the GI50 [10]?
Its GI50 is > 10 µM (inactive).

What about the GI50 [11] of the same compound?
The GI50 was greater than 10 µM.

And the GI50 [12]?
The GI50 was > 10 µM (inactive).

And the GI50 [13]?
The GI50 was > 10 µM (inactive).

What about the GI50 [53] of the same compound?
Its GI50 is > 10 µM (inactive).

What about the GI50 [14] of the same compound?
The GI50 was > 10 µM (inactive).

What about the GI50 [15] of the same compound?
Its GI50 is > 10 µM (inactive).

And the GI50 [16]?
The GI50 was > 10 µM (inactive).

And the GI50 [17]?
Its GI50 is > 10 µM (inactive).

What about the GI50 [18] of the same compound?
Its GI50 is > 10 µM (inactive).

What about the GI50 [19] of the same compound?
The GI50 was > 10 µM (inactive).

What about the GI50 [20] of the same compound?
The GI50 was > 10 µM (inactive).

What about the GI50 [21] of the same compound?
The GI50 was > 10 µM (inactive).

What about the GI50 [22] of the same compound?
Its GI50 is > 10 µM (inactive).

And the GI50 [23]?
The GI50 was > 10 µM (inactive).

What about the GI50 [24] of the same compound?
The GI50 was > 10 µM (inactive).

And the GI50 [25]?
Its GI50 is > 10 µM (inactive).

And the GI50 [27]?
Its GI50 is > 10 µM (inactive).

What about the GI50 [28] of the same compound?
Its GI50 is > 10 µM (inactive).

What about the GI50 [29] of the same compound?
The GI50 was > 10 µM (inactive).

And the GI50 [30]?
The GI50 was > 10 µM (inactive).

What about the GI50 [31] of the same compound?
The GI50 was > 10 µM (inactive).

What about the GI50 [32] of the same compound?
The GI50 was > 10 µM (inactive).

What about the GI50 [54] of the same compound?
The GI50 was > 10 µM (inactive).

And the GI50 [33]?
The GI50 was > 10 µM (inactive).

And the GI50 [34]?
Its GI50 is > 10 µM (inactive).

What about the GI50 [35] of the same compound?
The GI50 was > 10 µM (inactive).

What about the GI50 [36] of the same compound?
The GI50 was > 10 µM (inactive).

What about the GI50 [37] of the same compound?
Its GI50 is > 10 µM (inactive).

And the GI50 [38]?
Its GI50 is > 10 µM (inactive).

And the GI50 [39]?
The GI50 was > 10 µM (inactive).

And the GI50 [40]?
The GI50 was > 10 µM (inactive).

What about the GI50 [41] of the same compound?
Its GI50 is > 10 µM (inactive).

What about the GI50 [55] of the same compound?
The GI50 was > 10 µM (inactive).

What about the GI50 [42] of the same compound?
The GI50 was > 10 µM (inactive).

What about the GI50 [56] of the same compound?
The GI50 was > 10 µM (inactive).

What about the GI50 [43] of the same compound?
The GI50 was > 10 µM (inactive).

And the GI50 [44]?
Its GI50 is > 10 µM (inactive).

And the GI50 [45]?
The GI50 was > 10 µM (inactive).

What about the GI50 [57] of the same compound?
Its GI50 is > 10 µM (inactive).

What about the GI50 [46] of the same compound?
The GI50 was > 10 µM (inactive).

And the GI50 [47]?
The GI50 was > 10 µM (inactive).

What about the GI50 [48] of the same compound?
The GI50 was > 10 µM (inactive).

What about the GI50 [49] of the same compound?
The GI50 was > 10 µM (inactive).

What about the GI50 [50] of the same compound?
Its GI50 is > 10 µM (inactive).

What about the GI50 [51] of the same compound?
The GI50 was > 10 µM (inactive).

And the GI50 [52]?
The GI50 was > 10 µM (inactive).
